Results reported in patent US9353067B2, “Heterocyclic compounds and uses thereof in the treatment of sexual disorders” (ATIR Holding S.A., priority 2011, dated 2016).

Experiments:
Dopamine D1 receptor = Dopamine D1 receptor (Homo sapiens (Human), UniProt P21728); assay: Competitive binding, SCH-23390 radioligand
Procedure: (§1) R-55 (which comprises a 3-hydroxyphenyl moiety) and the structurally related compounds N-108 (2-{[4-(2-ethoxyphenyl)piperazin-1-yl]methyl}quinazolin-4(3H)-one) and B-39 (7-chloro-2-((5,6-dihydro-4-(2-methoxyphenyl)pyridin-1(2H)-yl)methyl)quinazolin-4(3H)-one) were assayed for competitive binding to a variety of receptors, including D4.4 type dopamine receptor, in order to assess their specificity for D4.4 dopamine receptors.
(§2) The receptors were expressed as human recombinant proteins in CHO cells, except for adrenergic α1 and α2 receptors which were expressed in Wistar rat brain and cerebral cortex cells, respectively, and melanocortin MC4 receptor which was expressed in human recombinant HEK-293 cells. Binding was determined using the following radioligands in the presence of various concentrations of the tested compound:
(§3) 1.4 nM and 2 nM SCH-23390, respectively, for dopamine D1 and D5 receptors,
(§4) The binding assays were performed in accordance with procedures described in the literature (Greengrass & Bremner, 1979; Boyajian & Leslie, 1987; Broadhurst, 1988; Lewis, 2001; Sutton, 1995; Dearry, 1990; Zhou, 1990; Grandy, 1989; Hayes, 1992; Sokoloff, 1990; Van Tol, 1991; Van Tol 1992; Sunahara, 1991; Weinshank, 1991; Schioth, 1996; Schioth 1997; Martin & Humphrey, 1994; May, 2003; Wolf & Schutz, 1997).

Dopamine D5 receptor = Dopamine D5 receptor (Homo sapiens (Human), UniProt P21918); assay: Competitive binding, SCH-23390 radioligand
Procedure: as §1, §2, §3, §4

[1] = target: Melanocortin MC4 receptor (Homo sapiens (Human), UniProt P32245); assay: Competitive binding, NDP-α-MSH radioligand
Procedure: as §1, §2
0.02 nM NDP-α-MSH for melanocortin MC4 receptor,
as §4

PARP-1 = PARP-1 (Homo sapiens (Human), UniProt P09874); assay: Universal Chemiluminescent PARP Assay; format: biochemical
Procedure: In addition, R-55 and its hydrochloride salt were assayed for PARP (poly(ADP-ribose)polymerase) inhibitory activity, as some quinazolinone derivatives, particularly derivatives comprising quinazolinone linked via a three-carbon moiety to substituted pyridinyl and piperazinyl moieties, have been identified as potent PARP inhibitors [U.S. Patent Application Publication No. 2004/0077667; Iwashita et al., FEBS Lett 579:1389-1393(2005); Hattori et al., J Med Chem 47:4151-4154(2004)]. PARP plays a natural role in repair of DNA damage, and inhibition of PARP may lead to undesirable side effects in any treatment of a sexual disorder.
Inhibition of PARP-1 was assayed using a Universal Chemiluminescent PARP Assay (Trevigen, Inc.).
The tested compounds were diluted from 2.1 mg of powder in 25 μl of DMSO. The tested compounds were diluted to 100 μM in 1% DMSO/99% ethanol. 3-Aminobenzamide (3-AB), a commercially available weak PARP inhibitor, was used as a positive control. The activity of PARP was quantified as relative light units (RLU). Each of the tested compounds was assayed twice.
In Assay 1, the 100 μM stock solution was diluted to 40 μM in 1×PARP buffer. The compounds were then serially diluted down to 0.4 μM. Each tested compound was
further diluted 1:4 during the assay, so the final concentrations ranged from 10 μM to 0.1 μM.
In Assay 2, the 100 μM stock was added to 1×PARP buffer to prepare samples with concentrations ranging from 40 μM to 2 μM. A 10 μM stock solution was added to 1×PARP buffer to prepare samples with concentrations of 1 μM and 0.4 μM. Each tested compound was further diluted 1:4 during the assay, so the final concentrations ranged from 10 μM to 0.1 μM.

Chain of PARP-1 (P09874 whole entry): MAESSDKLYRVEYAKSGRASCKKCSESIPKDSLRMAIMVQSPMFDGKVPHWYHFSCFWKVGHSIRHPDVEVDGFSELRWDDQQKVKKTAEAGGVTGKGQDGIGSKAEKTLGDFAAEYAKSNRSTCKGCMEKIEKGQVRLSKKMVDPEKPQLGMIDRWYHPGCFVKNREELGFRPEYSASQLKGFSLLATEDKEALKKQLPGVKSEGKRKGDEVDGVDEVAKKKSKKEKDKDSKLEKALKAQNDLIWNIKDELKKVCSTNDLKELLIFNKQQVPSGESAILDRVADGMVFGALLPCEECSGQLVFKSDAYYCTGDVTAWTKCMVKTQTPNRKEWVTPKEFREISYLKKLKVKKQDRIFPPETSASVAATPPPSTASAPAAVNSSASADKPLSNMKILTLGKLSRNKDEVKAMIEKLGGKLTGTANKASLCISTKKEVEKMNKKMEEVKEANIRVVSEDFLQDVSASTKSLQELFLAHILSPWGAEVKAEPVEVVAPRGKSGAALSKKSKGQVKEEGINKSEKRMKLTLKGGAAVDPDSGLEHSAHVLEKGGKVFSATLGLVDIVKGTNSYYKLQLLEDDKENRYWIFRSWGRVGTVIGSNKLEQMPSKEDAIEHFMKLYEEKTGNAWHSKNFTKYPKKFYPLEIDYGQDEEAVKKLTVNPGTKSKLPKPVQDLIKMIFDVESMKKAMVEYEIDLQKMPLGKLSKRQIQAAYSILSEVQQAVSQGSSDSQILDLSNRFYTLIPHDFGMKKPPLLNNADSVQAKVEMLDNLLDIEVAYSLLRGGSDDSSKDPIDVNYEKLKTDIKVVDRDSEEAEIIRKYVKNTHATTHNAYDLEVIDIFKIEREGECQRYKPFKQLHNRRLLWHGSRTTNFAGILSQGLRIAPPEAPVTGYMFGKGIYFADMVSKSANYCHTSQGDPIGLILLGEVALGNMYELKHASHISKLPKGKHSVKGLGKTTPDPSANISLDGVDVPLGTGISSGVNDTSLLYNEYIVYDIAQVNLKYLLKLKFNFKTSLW
Chain of Dopamine D5 receptor (P21918 whole entry): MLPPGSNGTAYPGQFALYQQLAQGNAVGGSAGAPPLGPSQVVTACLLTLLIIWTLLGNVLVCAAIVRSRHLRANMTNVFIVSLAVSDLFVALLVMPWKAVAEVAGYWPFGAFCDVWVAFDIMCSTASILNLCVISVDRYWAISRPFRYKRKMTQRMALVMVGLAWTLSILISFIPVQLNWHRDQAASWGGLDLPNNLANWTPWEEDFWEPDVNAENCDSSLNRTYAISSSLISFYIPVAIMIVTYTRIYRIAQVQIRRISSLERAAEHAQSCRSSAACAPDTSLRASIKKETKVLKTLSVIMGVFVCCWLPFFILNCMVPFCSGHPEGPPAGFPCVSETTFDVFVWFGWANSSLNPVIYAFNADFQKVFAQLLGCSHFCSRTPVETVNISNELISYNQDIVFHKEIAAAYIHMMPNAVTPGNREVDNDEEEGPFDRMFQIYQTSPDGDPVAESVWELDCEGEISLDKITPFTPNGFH
Chain of Dopamine D1 receptor (P21728 whole entry): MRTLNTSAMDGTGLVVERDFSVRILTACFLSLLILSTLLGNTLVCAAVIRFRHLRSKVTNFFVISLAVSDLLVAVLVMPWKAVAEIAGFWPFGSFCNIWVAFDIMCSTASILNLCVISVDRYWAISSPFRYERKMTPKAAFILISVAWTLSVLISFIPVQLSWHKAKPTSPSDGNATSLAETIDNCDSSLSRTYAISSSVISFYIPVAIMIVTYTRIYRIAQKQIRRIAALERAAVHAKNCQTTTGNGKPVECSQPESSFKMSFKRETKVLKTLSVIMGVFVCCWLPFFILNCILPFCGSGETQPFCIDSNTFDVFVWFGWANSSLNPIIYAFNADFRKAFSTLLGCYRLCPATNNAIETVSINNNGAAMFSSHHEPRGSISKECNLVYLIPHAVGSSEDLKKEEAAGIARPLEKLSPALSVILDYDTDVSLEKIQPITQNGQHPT
Chain of Melanocortin MC4 receptor (P32245 whole entry): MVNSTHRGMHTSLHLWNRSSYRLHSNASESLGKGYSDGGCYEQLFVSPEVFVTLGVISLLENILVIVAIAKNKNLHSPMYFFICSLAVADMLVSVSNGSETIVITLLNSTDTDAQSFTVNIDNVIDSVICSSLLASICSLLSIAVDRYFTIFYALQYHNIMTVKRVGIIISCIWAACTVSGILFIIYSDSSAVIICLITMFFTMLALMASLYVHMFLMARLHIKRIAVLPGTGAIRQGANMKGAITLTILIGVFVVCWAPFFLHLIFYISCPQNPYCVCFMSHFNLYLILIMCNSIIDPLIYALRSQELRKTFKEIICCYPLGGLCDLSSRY

- Competitive binding (%) at 5 μM of tested compound (Dopamine D1 receptor): −12%
- Competitive binding (%) at 5 μM of tested compound (Dopamine D5 receptor): 0%
- Competitive binding (%) at 5 μM of tested compound [1]: 3%
- inhibition at 5 µM (PARP-1; 5 μM, average results from two assays): 19%
- inhibition at 10 µM (PARP-1; 10 μM, average results from two assays): 21%
Compound: O=c1[nH]c(CN2CCN(c3cccc(O)c3)CC2)nc2ccccc12 [Compound R-55, 2-((4-(3-hydroxyphenyl)piperazin-1-yl)methyl)quinazolin-4-one]
- inhibition of PARP (in words) (PARP-1; Assay 1 and Assay 2, 0.1 μM to 10 μM): did not exhibit any significant inhibition of PARP
